System: mussel mantle edge
Assay: Ex-vivo incubation of mantle edge fragments, calcium quantification by MP-AES
Design: species or system Mytilus galloprovincialis
Settings: Verapamil 200 µM, 4 hours; data not shown
Description: Figure 7 Effect of the mussel calcitonin-like peptide on (A) calcium (ppm) concentration in the mantle edge and (B) calcium uptake by mantle cells of the Mediterranean mussel. (A) The quantity of calcium (ppm) present in the mantle edge after mussel CALCIIa peptide incubation was measured using a Microwave Plasma-Atomic Emission Spectrometer (MP-AES, Agilent) at 393.366 nm. A standard curve for calcium was performed before analysing the samples. In vitro mantle assays with CALCIIa peptide and with ouabain and control (culture medium and mantle) were repeated on at least 3 independent occasions. For each assay at least ten replicates were performed and the mantle edge distal to the umbo was used (one mantle fragment per replica). Prism GraphPad v5 software was used to assess the significance of differences between the groups using a One-way Anova and Tukey’s multiple comparison test. […] C - control (no peptide or ouabain); P - peptide (10 μM); O - ouabain (2 mM), OP - ouabain (2 mM) and peptide (10 μM); PreOP - pre -stimulation for 1 hour with the peptide followed by 4 hours incubation with OP. (B) Digital photographs of the mussel mantle cells in the presence (CALCIIa, 10 μM) or absence (control) of the mussel CALCIIa peptide. Calcium ions were stained with 50 mM of Calcein (green) and cell nuclei (blue) with DAPI (Acros Organics). An increase in cellular fluorescence represents an increase in calcium uptake. Fluorescence of the CALCIIa peptide stimulated cells was 1.9 times higher than the control. The average mantle cell size was 3–4 μm and fluorescent images were taken using a Leica DM IL microscope coupled to a Visicam HDMI 6 digital camera and photographs were analysed using ImageJ software (v. 1.52a) to calculate the fluorescence intensity and for image overlay. The scale bar is indicated.
The posterior mantle edge region of the Mediterranean mussel was collected and washed in culture medium. The composition of the culture medium was as described in[91] […]

## COc1ccc(CCN(C)CCCC(C#N)(c2ccc(OC)c(OC)c2)C(C)C)cc1OC (stereo not shown) [Verapamil]
  Calcium concentration of mantle fragments relative to the control (in words): did not change
